Assay results taken from patent US6838565B2, “Substituted benzoic acid amides, their preparation and their use as pharmaceutical compositions” (Boehringer Ingelheim Pharma GmbH & Co. KG, priority 2002, dated 2005).
Structures can show the parent of a compound that is named as a salt.

Biological target: T1, human factor Xa (Homo sapiens, UniProt P00742)
T1 construct: released from the colourless chromogenic substrate by human factor Xa; purchased Roche
Experiment: Inhibition of factor Xa, enzyme-kinetic measurement with chromogenic substrate (Chromozym X)
Type: biochemical
Conditions: pNA release from Chromozym X 200 μMol/l, 405 nm, 37° C., pH 8.0, factor Xa 0.175 U/ml
Protocol: Method: Enzyme-kinetic measurement with chromogenic substrate. The quantity of p-nitroaniline (pNA) released from the colourless chromogenic substrate by human factor Xa is determined photometrically at 405 nm. It is proportional to the activity of the enzyme used. The inhibition of the enzyme activity by the test substance (in relation to the solvent control) is determined at various concentrations of test substance and from this the IC50 is calculated, as the concentration which inhibits the factor Xa used by 50%.
• Tris(hydroxymethyl)-aminomethane buffer (100 mmol) and sodium chloride (150 mmol), pH 8.0 • Factor Xa (Roche), spec. activity: 10 U/0.5 ml, final concentration: 0.175 U/ml for each reaction mixture • Substrate Chromozym X (Roche), final concentration: 200 μMol/l for each reaction mixture • Test substance: final concentration 100, 30, 10, 3, 1, 0.3, 0.1, 0.03, 0.01, 0.003, 0.001 μMol/l Procedure
10 μl of a 23.5-times concentrated starting solution of the test substance or solvent (control), 175 μl of tris(hydroxymethyl)-aminomethane buffer and 25 μl of a 1.65 U/ml Factor Xa working solution are incubated for 10 minutes at 37° C. After the addition of 25 μl of Chromozym X working solution (1.88 μmol/l) the sample is measured in a photometer (SpectraMax 250) at 405 nm for 150 seconds at 37° C.
• 1. […]

T1 sequence (P00742 235-488 limits assumed): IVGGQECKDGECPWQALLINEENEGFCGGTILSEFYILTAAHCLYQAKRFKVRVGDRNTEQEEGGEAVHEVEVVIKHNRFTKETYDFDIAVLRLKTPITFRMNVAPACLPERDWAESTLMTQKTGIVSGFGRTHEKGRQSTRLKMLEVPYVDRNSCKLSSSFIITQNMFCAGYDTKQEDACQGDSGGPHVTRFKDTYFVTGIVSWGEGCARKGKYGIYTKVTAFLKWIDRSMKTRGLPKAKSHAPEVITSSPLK
T1 sequence (P00742 41-179 partner limits assumed): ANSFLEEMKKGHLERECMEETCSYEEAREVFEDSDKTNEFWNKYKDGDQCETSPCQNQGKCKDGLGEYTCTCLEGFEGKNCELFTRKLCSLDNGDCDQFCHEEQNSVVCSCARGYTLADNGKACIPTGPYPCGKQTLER

| Compound | IC50 [µM] |
| --- | --- |
| Cc1cc(C(=O)NC(Cc2nnn[nH]2)c2cccc(C(=N)N)c2)ccc1C(=O)N1CCCC1 (centres unmarked) [(2), N-[1-(3-amidino-phenyl)-2-(1H-tetrazol-5-yl)-ethyl]-3-methyl-4-(pyrrolidin-1-carbonyl)-benzamide-hydrochloride] | 0.026 |
| Cc1cc(C(=O)NC(Cc2nnn[nH]2)c2cccc(C(=N)N)c2)ccc1C(=O)N1CC=CC1 (centres unmarked) [(1), N-[1-(3-amidino-phenyl)-2-(1H-tetrazol-5-yl)-ethyl]-4-(2,5-dihydro-pyrrol-1-yl-carbonyl)-3-methyl-benzamide-hydrochloride] | 0.008 |
